Reference: PubChem BioAssay AID328 (DTP/NCI, 2004)
“And” between values parts separate entries of the source, which are not always exact repeats. Equal entries are not always repeated. Toxic doses and inconclusive results are not listed. Rule for the calls: active = survival T/C of 150% or more; inactive = T/C below 125% in these data.

System: BDF1 mice, P388 leukemia ip, median survival T/C
Experiment: NCI In Vivo Anticancer Drug Screen. Data for tumor model P388 Leukemia (intraperitoneal) in B6D2F1 (BDF1) mice
Conditions: endpoint: median survival time, higher = longer survival
Outline: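 Survival ratio, drug arm over vehicle arm, in mice with a transplanted tumour.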

[1] = dose: 25.0 mg/kg/injection, schedule: Q01DX009 (ip), vehicle: saline with Tween-80
[2] = dose: 100.0 mg/kg/injection, schedule: Q01DX009 (ip), vehicle: saline with Tween-80
[3] = dose: 100.0 mg/kg/injection, schedule: Q04DX003 (ip), vehicle: saline with Tween-80
[4] = dose: 200.0 mg/kg/injection, schedule: Q01DX009 (ip), vehicle: saline with Tween-80
[5] = dose: 200.0 mg/kg/injection, schedule: Q04DX003 (ip), vehicle: saline with Tween-80
[6] = dose: 400.0 mg/kg/injection, schedule: Q01DX009 (ip), vehicle: saline with Tween-80
[7] = dose: 400.0 mg/kg/injection, schedule: Q04DX003 (ip), vehicle: saline with Tween-80

Measured: T/C

O=C(NC(=O)c1c(F)cccc1F)Nc1nc2ccccc2s1
inactive: [1] 93 % of control | [2] 93 % of control

c1ccc2c(c1)CCc1cc3c(nc1-2)-c1ccccc1CC3
inactive: dose: 100.0 mg/kg/injection, schedule: Q04DX003 (ip), vehicle: Klucel (hydroxypropylcellulose) (HPC) 112 % of control | dose: 400.0 mg/kg/injection, schedule: Q04DX003 (ip), vehicle: Klucel (hydroxypropylcellulose) (HPC) 112 % of control

O=C(O)c1cc2c(Br)cccc2c2cc(C(F)(F)F)ccc12
inactive: dose: 50.0 mg/kg/injection, schedule: Q04DX003 (ip), vehicle: saline sonified 95 % of control | dose: 100.0 mg/kg/injection, schedule: Q04DX003 (ip), vehicle: saline sonified 100 % of control | dose: 200.0 mg/kg/injection, schedule: Q04DX003 (ip), vehicle: saline sonified 100 % of control

CCC(C(=O)OC)C1CCCCC1 (configuration not stated)
inactive: [2] 107 % of control | [3] 108 % of control | [4] 111 % of control | [5] 100 % of control | [6] 103 % of control | [7] 104 % of control

C=CC[Se]c1nc(N)nc2c1ncn2C1OC(CO)C(O)C1O (configuration not stated)
inactive: dose: 6.25 mg/kg/injection, schedule: Q01DX009 (ip), vehicle: saline 105 % of control | dose: 6.25 mg/kg/injection, schedule: Q04DX003 (ip), vehicle: saline 100 % of control | dose: 12.5 mg/kg/injection, schedule: Q01DX009 (ip), vehicle: saline 111 % of control | dose: 12.5 mg/kg/injection, schedule: Q04DX003 (ip), vehicle: saline 100 % of control | dose: 25.0 mg/kg/injection, schedule: Q01DX009 (ip), vehicle: saline 100 % of control | dose: 25.0 mg/kg/injection, schedule: Q04DX003 (ip), vehicle: saline 95 % of control and 104 % of control | dose: 50.0 mg/kg/injection, schedule: Q04DX003 (ip), vehicle: saline 90 % of control | dose: 100.0 mg/kg/injection, schedule: Q04DX003 (ip), vehicle: saline 90 % of control

CCCC(C(=O)OCCN(CC)CC)(c1ccccc1)c1ccccc1
inactive: dose: 54.0 mg/kg/injection, schedule: Q01DX001 (ip), vehicle: saline 105 % of control | dose: 90.0 mg/kg/injection, schedule: Q01DX001 (ip), vehicle: saline 104 % of control | dose: 150.0 mg/kg/injection, schedule: Q01DX001 (ip), vehicle: saline 105 % of control

O=Cc1csc2ncccc12
inactive: [3] 91 % of control | [5] 100 % of control | [7] 95 % of control

CCCCCCC(=O)/C=C/c1cc(OC)ccc1OC
inactive: dose: 12.5 mg/kg/injection, schedule: Q01DX009 (ip), vehicle: saline with Tween-80 100 % of control | [1] 95 % of control | dose: 50.0 mg/kg/injection, schedule: Q01DX009 (ip), vehicle: saline with Tween-80 104 % of control | [2] 104 % of control

CN(C)c1ccc(/C=C/C2CC[N-]C3C(O)CCCC23)cc1.CN(C)c1ccc(/C=C/C2CC[N-]C3C(O)CCCC23)cc1.CN(C)c1ccc(/C=C/C2CC[N-]C3C(O)CCCC23)cc1.[Fe+3] (configuration not stated)
inactive: dose: 100.0 mg/kg/injection, schedule: Q04DX002 (ip), vehicle: saline with Tween-80 110 % of control | dose: 200.0 mg/kg/injection, schedule: Q04DX002 (ip), vehicle: saline with Tween-80 122 % of control

COc1ccc(/C=C/C(=O)c2ccc3c(c2)OCO3)cc1OC
inactive: dose: 44.0 mg/kg/injection, schedule: Q01DX009 (ip), vehicle: saline with Tween-80 109 % of control | dose: 44.0 mg/kg/injection, schedule: Q04DX003 (ip), vehicle: saline with Tween-80 109 % of control | dose: 66.0 mg/kg/injection, schedule: Q01DX009 (ip), vehicle: saline with Tween-80 118 % of control | dose: 66.0 mg/kg/injection, schedule: Q04DX003 (ip), vehicle: saline with Tween-80 109 % of control | dose: 88.0 mg/kg/injection, schedule: Q01DX009 (ip), vehicle: saline with Tween-80 123 % of control | [3] 109 % of control | dose: 150.0 mg/kg/injection, schedule: Q04DX003 (ip), vehicle: saline with Tween-80 109 % of control
active: [4] 157 % of control | [6] 194 % of control
